Where a SMILES comes first, the peptide text is derived from it.
How the values were obtained:
Assay in all cases: microbe, parasite or virus in culture
[1] = test system: C. auris TDG 1912; type: cell-based, Candida auris; conditions: C. auris TDG 1912
Procedure, shortened: (§1)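 Peptides 128→2 μg/mL, 2-fold series; inoculum ~5 × 10^5 CFU/mL from overnight culture (OD600 0.01, mixed 1:1). MHB non-cation-adjusted for bacteria, RPMI 1640 + 2% glucose for fungi. 37 °C, 20 h, OD600. MIC50/MIC90 at 50%/90% inhibition; n ≥ 3.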

[2] = test system: E. coli LEC001; type: cell-based, Escherichia coli; conditions: E. coli LEC001 (R)
Procedure, shortened: as §1

[3] = test system: E. coli NCTC 12923; type: cell-based, Escherichia coli; conditions: E. coli NCTC 12923 (S)
Procedure, shortened: as §1

[4] = test system: K. pneumoniae NCTC 13368; type: cell-based, Klebsiella pneumoniae; conditions: K. pneumoniae NCTC 13368 (R)
Procedure, shortened: as §1

[5] = test system: K. pneumoniae M6; type: cell-based, Klebsiella pneumoniae; conditions: K. pneumoniae M6 (S)
Procedure, shortened: as §1

[6] = test system: C. glabrata NCPF 8018; type: cell-based; conditions: C. glabrata NCPF 8018
Procedure, shortened: as §1

[7] = test system: C. krusei NCPF 3876; type: cell-based; conditions: C. krusei NCPF 3876
Procedure, shortened: as §1

[8] = test system: C. tropicalis NCPF 8760; type: cell-based; conditions: C. tropicalis NCPF 8760
Procedure, shortened: as §1

[9] = test system: C. albicans NCPF 3281; type: cell-based; conditions: C. albicans NCPF 3281
Procedure, shortened: as §1

[10] = test system: C. parapsilosis NCPF 3209; type: cell-based; conditions: C. parapsilosis NCPF 3209
Procedure, shortened: as §1

[11] = test system: S. aureus (MRSA) 1199B; type: cell-based, Staphylococcus aureus; conditions: S. aureus (MRSA) 1199B (R)
Procedure, shortened: as §1

[12] = test system: S. aureus (MSSA) ATCC 9144; type: cell-based, Staphylococcus aureus; conditions: S. aureus (MSSA) ATCC 9144 (S)
Procedure, shortened: as §1

[13] = test system: S. aureus (MRSA) USA300; type: cell-based, Staphylococcus aureus; conditions: S. aureus (MRSA) USA300 (R)
Procedure, shortened: as §1

[14] = test system: S. aureus (MRSA) NCTC 13616; type: cell-based, Staphylococcus aureus; conditions: S. aureus (MRSA) NCTC 13616 (R)
Procedure, shortened: as §1

[15] = test system: A. baumannii ATCC 17978; type: cell-based, Acinetobacter baumannii; conditions: A. baumannii ATCC 17978 (S)
Procedure, shortened: as §1

[16] = test system: A. baumannii AYE; type: cell-based, Acinetobacter baumannii; conditions: A. baumannii AYE (R)
Procedure, shortened: as §1

[17] = 50% growth inhibition, RPMI 1640 + 2% glucose, 37 °C, 20 h, OD600
[18] = 90% growth inhibition, RPMI 1640 + 2% glucose, 37 °C, 20 h, OD600
[19] = MHB, 37 °C, 20 h, OD600, min. three biological repeats
[20] = MHB, ~5×10^5 CFU/mL, 37 °C, 20 h, OD600, min. three biological repeats
[21] = 50% growth inhibition, RPMI 1640 + 2% glucose, 37 °C, 20 h
[22] = 90% growth inhibition, RPMI 1640 + 2% glucose, 37 °C, 20 h

## CC[C@H](C)[C@H](NC(=O)CNC(=O)[C@@H](N)CCCNC(=N)N)C(=O)N[C@@H](CCCNC(=N)N)C(=O)NCC(=O)N[C@@H](Cc1ccc(O)cc1)C(=O)N[C@@H](CCCCN)C(=O)NCC(=O)NCC(=O)N[C@@H](Cc1ccc(O)cc1)C(=O)N[C@@H](CS)C(=O)N[C@H](C(=O)NCC(=O)N[C@@H](CCCNC(=N)N)C(=O)N[C@@H](Cc1ccccc1)C(=O)N[C@@H](CCCCN)C(=O)N[C@@H](CCC(N)=O)C(=O)N[C@H](C(=O)N[C@@H](CS)C(=O)N[C@@H](CCCCN)C(=O)N[C@@H](CS)C(=O)N[C@@H](Cc1ccc(O)cc1)C(=O)O)[C@@H](C)O)[C@@H](C)O [OmDefB] (H-RGIRGYKGGYCTGRFKQTCKCY-OH; N-terminus and C-terminus assumed)
[1]; [17]
  Modal MIC50: > 128 µg/mL
[1]; [18]
  Modal MIC90: > 128 µg/mL
[1]; shown in µM
  Modal MIC50: > 49.9 µM
  Modal MIC90: > 49.9 µM
[2]; [19]
  Modal MIC: > 128 µg/mL
[2]; shown in µM
  Modal MIC: > 49.9 µM
[3]; [20]
  Modal MIC: > 128 µg/mL
[3]; shown in µM
  Modal MIC: > 49.9 µM
[4]; [19]
  Modal MIC: > 128 µg/mL
[4]; shown in µM
  Modal MIC: > 49.9 µM
[5]; [19]
  Modal MIC: > 128 µg/mL
[5]; shown in µM
  Modal MIC: > 49.9 µM
[6]; [21]
  Modal MIC50: > 128 µg/mL
[6]; [22]
  Modal MIC90: > 128 µg/mL
[6]; shown in µM
  Modal MIC50: > 49.9 µM
  Modal MIC90: > 49.9 µM
[7]; [21]
  Modal MIC50: > 128 µg/mL
[7]; [22]
  Modal MIC90: > 128 µg/mL
[7]; shown in µM
  Modal MIC50: > 49.9 µM
  Modal MIC90: > 49.9 µM
[8]; [21]
  Modal MIC50: > 128 µg/mL
[8]; [22]
  Modal MIC90: > 128 µg/mL
[8]; shown in µM
  Modal MIC50: > 49.9 µM
  Modal MIC90: > 49.9 µM
[9]; [21]
  Modal MIC50: > 128 µg/mL
[9]; [22]
  Modal MIC90: > 128 µg/mL
[9]; shown in µM
  Modal MIC50: > 49.9 µM
  Modal MIC90: > 49.9 µM
[10]; [21]
  Modal MIC50: > 128 µg/mL
[10]; [22]
  Modal MIC90: > 128 µg/mL
[10]; shown in µM
  Modal MIC50: > 49.9 µM
  Modal MIC90: > 49.9 µM
[11]; [19]
  Modal MIC: > 128 µg/mL
[11]; shown in µM
  Modal MIC: > 49.9 µM
[12]; [19]
  Modal MIC: > 128 µg/mL
[12]; shown in µM
  Modal MIC: > 49.9 µM
[13]; [19]
  Modal MIC: > 128 µg/mL
[13]; shown in µM
  Modal MIC: > 49.9 µM
[14]; [19]
  Modal MIC: > 128 µg/mL
[14]; shown in µM
  Modal MIC: > 49.9 µM
[15]; [19]
  Modal MIC: > 128 µg/mL
[15]; shown in µM
  Modal MIC: > 49.9 µM
[16]; [19]
  Modal MIC: > 128 µg/mL
[16]; shown in µM
  Modal MIC: > 49.9 µM

## CC[C@H](C)[C@H](NC(=O)[C@@H](N)Cc1c[nH]c2ccccc12)C(=O)N[C@@H](CCCCN)C(=O)N[C@@H](CO)C(=O)N[C@H](C(=O)N[C@@H](C)C(=O)N[C@@H](CCCCN)C(=O)N[C@@H](CCCCN)C(N)=O)[C@@H](C)O [Opis8a] (H-WIKSTAKK-NH2)
[1]; [17]
  Modal MIC50: > 128 µg/mL
[1]; [18]
  Modal MIC90: > 128 µg/mL
[1]; shown in µM
  Modal MIC50: > 133.2 µM
  Modal MIC90: > 133.2 µM
[2]; [19]
  Modal MIC: > 128 µg/mL
[2]; shown in µM
  Modal MIC: > 133.2 µM
[3]; [20]
  Modal MIC: > 128 µg/mL
[3]; shown in µM
  Modal MIC: > 133.2 µM
[4]; [19]
  Modal MIC: > 128 µg/mL
[4]; shown in µM
  Modal MIC: > 133.2 µM
[5]; [19]
  Modal MIC: > 128 µg/mL
[5]; shown in µM
  Modal MIC: > 133.2 µM
[6]; [21]
  Modal MIC50: > 128 µg/mL
[6]; [22]
  Modal MIC90: > 128 µg/mL
[6]; shown in µM
  Modal MIC50: > 133.2 µM
  Modal MIC90: > 133.2 µM
[7]; [21]
  Modal MIC50: > 128 µg/mL
[7]; [22]
  Modal MIC90: > 128 µg/mL
[7]; shown in µM
  Modal MIC50: > 133.2 µM
  Modal MIC90: > 133.2 µM
[8]; [21]
  Modal MIC50: > 128 µg/mL
[8]; [22]
  Modal MIC90: > 128 µg/mL
[8]; shown in µM
  Modal MIC50: > 133.2 µM
  Modal MIC90: > 133.2 µM
[9]; [21]
  Modal MIC50: > 128 µg/mL
[9]; [22]
  Modal MIC90: > 128 µg/mL
[9]; shown in µM
  Modal MIC50: > 133.2 µM
  Modal MIC90: > 133.2 µM
[10]; [21]
  Modal MIC50: > 128 µg/mL
[10]; [22]
  Modal MIC90: > 128 µg/mL
[10]; shown in µM
  Modal MIC50: > 133.2 µM
  Modal MIC90: > 133.2 µM
[11]; [19]
  Modal MIC: > 128 µg/mL
[11]; shown in µM
  Modal MIC: > 133.2 µM
[12]; [19]
  Modal MIC: > 128 µg/mL
[12]; shown in µM
  Modal MIC: > 133.2 µM
[13]; [19]
  Modal MIC: > 128 µg/mL
[13]; shown in µM
  Modal MIC: > 133.2 µM
[14]; [19]
  Modal MIC: > 128 µg/mL
[14]; shown in µM
  Modal MIC: > 133.2 µM
[15]; [19]
  Modal MIC: > 128 µg/mL
[15]; shown in µM
  Modal MIC: > 133.2 µM
[16]; [19]
  Modal MIC: > 128 µg/mL
[16]; shown in µM
  Modal MIC: > 133.2 µM

## CC[C@H](C)[C@H](N)C(=O)N[C@@H](CCCNC(=N)N)C(=O)NCC(=O)N[C@@H](Cc1ccc(O)cc1)C(=O)N[C@@H](CCCCN)C(=O)NCC(=O)NCC(=O)N[C@@H](Cc1ccc(O)cc1)C(=O)N[C@@H](CS)C(=O)N[C@@H](CCCCN)C(N)=O [Os(3-12)a] (H-IRGYKGGYCK-NH2)
[1]; [17]
  Modal MIC50: > 128 µg/mL
[1]; [18]
  Modal MIC90: > 128 µg/mL
[1]; shown in µM
  Modal MIC50: > 112 µM
  Modal MIC90: > 112 µM
[2]; [19]
  Modal MIC: > 128 µg/mL
[2]; shown in µM
  Modal MIC: > 112 µM
[3]; [20]
  Modal MIC: > 128 µg/mL
[3]; shown in µM
  Modal MIC: > 112 µM
[4]; [19]
  Modal MIC: > 128 µg/mL
[4]; shown in µM
  Modal MIC: > 112 µM
[5]; [19]
  Modal MIC: > 128 µg/mL
[5]; shown in µM
  Modal MIC: > 112 µM
[6]; [21]
  Modal MIC50: > 128 µg/mL
[6]; [22]
  Modal MIC90: > 128 µg/mL
[6]; shown in µM
  Modal MIC50: > 112 µM
  Modal MIC90: > 112 µM
[7]; [21]
  Modal MIC50: > 128 µg/mL
[7]; [22]
  Modal MIC90: > 128 µg/mL
[7]; shown in µM
  Modal MIC50: > 112 µM
  Modal MIC90: > 112 µM
[8]; [21]
  Modal MIC50: > 128 µg/mL
[8]; [22]
  Modal MIC90: > 128 µg/mL
[8]; shown in µM
  Modal MIC50: > 112 µM
  Modal MIC90: > 112 µM
[9]; [21]
  Modal MIC50: > 128 µg/mL
[9]; [22]
  Modal MIC90: > 128 µg/mL
[9]; shown in µM
  Modal MIC50: > 112 µM
  Modal MIC90: > 112 µM
[10]; [21]
  Modal MIC50: > 128 µg/mL
[10]; [22]
  Modal MIC90: > 128 µg/mL
[10]; shown in µM
  Modal MIC50: > 112 µM
  Modal MIC90: > 112 µM
[11]; [19]
  Modal MIC: > 128 µg/mL
[11]; shown in µM
  Modal MIC: > 112 µM
[12]; [19]
  Modal MIC: > 128 µg/mL
[12]; shown in µM
  Modal MIC: > 112 µM
[13]; [19]
  Modal MIC: > 128 µg/mL
[13]; shown in µM
  Modal MIC: > 112 µM
[14]; [19]
  Modal MIC: > 128 µg/mL
[14]; shown in µM
  Modal MIC: > 112 µM
[15]; [19]
  Modal MIC: > 128 µg/mL
[15]; shown in µM
  Modal MIC: > 112 µM
[16]; [19]
  Modal MIC: > 128 µg/mL
[16]; shown in µM
  Modal MIC: > 112 µM
